Our source for the MIC and IC50 values is patent publication US11208387B2, “Macrocyclic broad spectrum antibiotics” (Genentech, Inc., priority 2019, dated 2021).

The test system of experiment [1] is Pseudomonas aeruginosa PA01. Nature of the experiment: Serum MIC, broth micro-dilution. The following applies: Pseudomonas aeruginosa, read-out: P. aeruginosa 01 Serum MIC. It counts as cell-based. An outline of the steps: (§1)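 Half mouse serum, half cation-adjusted MH II broth (v/v) served as test medium; bacteria at final OD600 0.0005 were exposed to serial 2-fold compound dilutions for 22 h, 35° C, and the MIC was determined per CLSI M07-A8.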
For orientation: Broth dilution looks for growth in wells or tubes with falling amounts of substance.

Experiment [2] deals with Klebsiella pneumoniae ATCC 700603. Nature of the experiment: Serum MIC, broth micro-dilution. It is filed as cell-based. The following applies: Klebsiella pneumoniae, read-out: K pneumoniae 700603 Serum MIC. An outline of the steps: as §1
The subject of experiment [3] is Acinetobacter baumannii ATCC 17978. Nature of the experiment: Serum MIC, broth micro-dilution. It is filed as cell-based. The following applies: Acinetobacter baumannii. Summed up:
as §1

Experiment [4] concerns Escherichia coli strain ATCC 25922. Nature of the experiment: Serum MIC, broth micro-dilution. It counts as cell-based. The following applies: Escherichia coli, read-out: E. coli 25922 Serum MIC. Summed up:
as §1

Experiment [5] has as its system isolated liver mitochondria. Nature of the experiment: Mitochondrial oxygen consumption rate (OCR) assay. It counts as biochemical, Sprague-Dawley rats. The following applies: isolated rat liver mitochondria, state 3 (S3) respiration, glutamate/malate; Table 3. Summed up: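 Liver mitochondria from male Sprague-Dawley rats preincubated with compounds 1 h on ice (1% DMSO, pH 7.4 buffer), then given glutamate/malate with TTFA (plus ADP for state 3) and phosphorescent O2 probe. Oxygen consumption read 30 min at 30 °C. IC50 (50 μg protein, S3) or UC50 (100 μg, S2) derived from AUC.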

Where [6] appears, read: PA01, 50% v/v mouse serum in Mueller Hinton II cation adjusted Broth, 35° C., 22 hours, Table 4.
Where [7] appears, read: ATCC700603, 50% v/v mouse serum in Mueller Hinton II cation adjusted Broth, 35° C., 22 hours, Table 4.
[8] abbreviates: ATCC17978, 50% v/v mouse serum in Mueller Hinton II cation adjusted Broth, 35° C., 22 hours, Table 4, read-out: A. baumanii 17978 Serum MIC.
Where [9] appears, read: ATCC17978, 50% v/v mouse serum in Mueller Hinton II cation adjusted Broth, 35° C., 22 hours, Table 5, read-out: Acinetobacter baumanii 17978 Serum MIC.
[10] abbreviates: ATCC25922, 50% v/v mouse serum in Mueller Hinton II cation adjusted Broth, 35° C., 22 hours, Table 4.

In brackets after ≈: the same amount, converted by molar mass. Read-outs that look alike come from different tables or passages of the source.

`Cc1nc(-c2ccc(C(F)(F)C(C)C)cc2)nc(N)c1C(=O)N[C@@H](CNS(N)(=O)=O)C(=O)N(C)[C@@H]1C(=O)N[C@@H](C)C(=O)N[C@H](C(=O)O)Cc2ccc(OC[C@H](O)CN)c(c2)-c2cc1cc(OC[C@H](O)CN)c2O` [Example 38, (8S,11S,14S)-14-[[(2S)-2-[[4-amino-2-[4-(1,1-difluoro-2-methyl-propyl)-phenyl]-6-methyl-pyrimidine-5-carbonyl]amino]-3-(sulfamoylamino)-propanoyl]-methyl-amino]-3,17-bis[(2R)-3-amino-2-hydroxy-propoxy]-18-hydroxy-11-methyl-10,13-dioxo-9,12-diazatri-cyclo[13.3.1.12,6]icosa-1(18),2(20),3,5,15(19), 16-hexaene-8-carboxylic acid]: the minimum inhibitory concentration (MIC) in experiment [1] (setting [6]) stood at 12 µM (≈ 12.5 µg/mL); in experiment [2] (setting [7]), 0.5 µM (≈ 0.522 µg/mL); in experiment [3] (setting [8]) it was 16 µM (≈ 16.7 µg/mL); in experiment [3] (setting [9]), 16 µM (≈ 16.7 µg/mL); in experiment [4] (setting [10]), 0.5 µM (≈ 0.522 µg/mL). Further, the IC50 in experiment [5] is more than 100 µM.

Regarding `Cc1nc(-c2ccc3c(c2O)CCC3(C)C)nc(N)c1C(=O)N[C@@H](CNS(N)(=O)=O)C(=O)N(C)[C@@H]1C(=O)N[C@@H](C)C(=O)N[C@H](C(=O)O)Cc2ccc(OC[C@H](O)CN)c(c2)-c2cc1cc(OC[C@H](O)CN)c2O` [Example 70, (8S,11S,14S)-18-hydroxy-11-methyl-14-[methyl-[(2S)-2-[[4-amino-2-(4-hydroxy-1,1-dimethyl-indan-5-yl)-6-methyl-pyrimidine-5-carbonyl]-amino]-3-(sulfamoyl-amino)propanoyl]-amino]-10,13-dioxo-3,17-bis[(2R)-3-amino-2-hydroxy-propoxy]-9,12-diazatricyclo-[13.3.1.12,6]icosa-1(18),2(20),3,5,15(19), 16-hexaene-8-carboxylic acid], the minimum inhibitory concentration (MIC) in experiment [1] (setting [6]) stood at 4 µM (≈ 4.14 µg/mL); in experiment [2] (setting [7]), 1 µM (≈ 1.04 µg/mL); in experiment [3] (setting [8]) it was 16 µM (≈ 16.6 µg/mL); in experiment [3] (setting [9]), 16 µM (≈ 16.6 µg/mL); in experiment [4] (setting [10]) it was 0.5 µM (≈ 0.518 µg/mL). Further, the half-inhibitory concentration (IC50) in experiment [5] was found to be 48 µM.

Take `C[C@@H]1NC(=O)[C@@H](N(C)C(=O)[C@H](CNS(N)(=O)=O)NC(=O)c2c(N)nc(-c3ccc(C(C)(C)C)cc3)nc2C(F)F)c2cc(OC[C@H](O)CN)c(O)c(c2)-c2cc(ccc2OC[C@H](O)CN)C[C@@H](C(=O)O)NC1=O` [Example 69, (8S,11S,14S)-14-[[(2S)-2-[[4-amino-2-(4-tert-butylphenyl)-6-(difluoromethyl)-pyrimidine-5-carbonyl]amino]-3-(sulfamoylamino)-propanoyl]-methyl-amino]-3,17-bis[(2R)-3-amino-2-hydroxy-propoxy]-18-hydroxy-11-methyl-10,13-dioxo-9,12-diazatri-cyclo[13.3.1.12,6]icosa-1(18),2(20),3,5,15(19), 16-hexaene-8-carboxylic acid]: the MIC amounted to 6 µM (≈ 6.26 µg/mL) in experiment [1] (setting [6]); 0.38 µM (≈ 0.397 µg/mL) in experiment [2] (setting [7]); 4 µM (≈ 4.18 µg/mL) in experiment [3] (setting [8]); 4 µM (≈ 4.18 µg/mL) in experiment [3] (setting [9]); 0.25 µM (≈ 0.261 µg/mL) in experiment [4] (setting [10]). In experiment [5], this molecule gave a concentration for half-maximal inhibition (IC50) of 44 µM.

Turning to `Cc1nc(-c2ccc(C(C)(C)C)cc2)nc(C)c1C(=O)N[C@@H](CCN)C(=O)N(C)[C@@H]1C(=O)N[C@@H](C)C(=O)N[C@H](C(=O)O)Cc2ccc(OC[C@H](O)CN)c(c2)-c2cc1cc(OC[C@H](O)CN)c2O` [Example 19, (8S,11S,14S)-18-hydroxy-11-methyl-14-[methyl-[(2S)-4-amino-2-[[2-(4-tert-butylphenyl)-4,6-dimethyl-pyrimidine-5-carbonyl]amino]-butanoyl]amino]-10,13-dioxo-3,17-bis[(2R)-3-amino-2-hydroxy-propoxyl]-9,12-diazatricyclo-[13.3.1.12,6]icosa-1(18),2(20),3,5,15(19), 16-hexaene-8-carboxylic acid], the MIC in experiment [1] (PA01, 22 h) amounted to 8 µM (≈ 7.54 µg/mL); in experiment [2] (ATCC700603, 22 h), 0.25 µM (≈ 0.236 µg/mL); in experiment [3] (ATCC17978, 22 h, read-out: A. baumanii 17978 Serum MIC), 16 µM (≈ 15.1 µg/mL); in experiment [3] (ATCC17978, 22 h, read-out: Acinetobacter baumanii 17978 Serum MIC) it was 16 µM (≈ 15.1 µg/mL); in experiment [4] (ATCC25922, 22 h), 0.25 µM (≈ 0.236 µg/mL). Also, the IC50 in experiment [5] was more than 250 µM.

In the case of `Cc1nc(-c2ccc(C(C)(C)C)cc2O)nc(N)c1C(=O)N[C@@H](CNS(N)(=O)=O)C(=O)N(C)[C@@H]1C(=O)N[C@@H](C)C(=O)N[C@H](C(=O)O)Cc2ccc(OC[C@H](O)CN)c(c2)-c2cc1cc(OC[C@H](O)CN)c2O` [Example 44, (8S,11S,14S)-14-[[(2S)-2-[[4-amino-2-(4-tert-butyl-2-hydroxy-phenyl)-6-methyl-pyrimidine-5-carbonyl]amino]-3-(sulfamoylamino)-propanoyl]-methyl-amino]-3,17-bis[(2R)-3-amino-2-hydroxy-propoxy]-18-hydroxy-11-methyl-10,13-dioxo-9,12-diazatricyclo-[13.3.1.12,6]icosa-1(18),2(20),3,5,15(19), 16-hexaene-8-carboxylic acid], the minimal inhibitory concentration (MIC) worked out at 4 µM (≈ 4.1 µg/mL) in experiment [1] (setting [6]); 0.5 µM (≈ 0.512 µg/mL) in experiment [2] (setting [7]); 8 µM (≈ 8.19 µg/mL) in experiment [3] (setting [8]); 8 µM (≈ 8.19 µg/mL) in experiment [3] (setting [9]); 0.5 µM (≈ 0.512 µg/mL) in experiment [4] (setting [10]). Also, half-maximal inhibition in experiment [5] (IC50) was put at 44 µM.

Broadly, the MIC is the smallest concentration in the dilution series that meets the test's criterion for growth inhibition. One may read the IC50 as the concentration at which inhibition is half-maximal. Read a high IC50 as weaker potency.
